Test: photoluminescence quantum yield (fraction); solvent given as SMILES

Molecule `CC1(C)c2cc(-n3c4ccccc4c4ccccc43)ccc2N(c2ccc(-c3cc(-c4ccccc4)nc(-c4ccccc4)n3)cc2)c2ccc(-n3c4ccccc4c4ccccc43)cc21` has a photoluminescence quantum yield (in O=P(c1ccccc1)(c1ccccc1)c1ccccc1Oc1ccccc1P(=O)(c1ccccc1)c1ccccc1) of 0.81.
`C(#Cc1nc(C#Cc2ccccc2)c(C#Cc2ccccc2)c(C#Cc2ccccc2)c1C#Cc1ccccc1)c1ccccc1` gave a photoluminescence quantum yield (in ClCCl) of 0.55.
Work on `ClP1(Cl)=NP(Cl)(Cl)=NP(Cl)(Oc2ccc3ccc4cccc5ccc2c3c45)=N1` (stereo not drawn) yielded a photoluminescence quantum yield (in ClCCl) of 0.55.
`CCCCCCOc1cc(/C=C/c2cc(OCCCCCC)c(/C=C/c3cc(OCCCCCC)c(C=C4C(=O)c5ccccc5C4=O)cc3OCCCCCC)cc2OCCCCCC)c(OCCCCCC)cc1C=C1C(=O)c2ccccc2C1=O` gave a photoluminescence quantum yield (in ClCCl) of 0.0468.
Molecule `COc1ccc(-c2cc(/C=C/c3ccc(N(c4ccccc4)c4ccccc4)cc3)c(C#N)c(N3CCCCC3)c2)cc1` has a photoluminescence quantum yield (in CS(C)=O) of 0.57.
In the case of `Brc1cnc(-c2ccncc2)s1`, the photoluminescence quantum yield (in CO) is reported as 0.02.
Work on `COc1ccc(-c2ccc3c(c2)[Si](C)(C)c2cc(-c4ccc(OC)cc4)ccc2C=C3)cc1` yielded a photoluminescence quantum yield (in ClCCl) of 0.93.
Molecule `c1ccc(-c2cc(-c3ccccc3)[o+]c(-c3ccccc3)c2)cc1` has a photoluminescence quantum yield (in CC#N) of 0.4 and a photoluminescence quantum yield (in ClCCCl) of 0.28.
Molecule `c1ccc(-c2nc(-c3ccc(-c4nc(-c5ccccc5)c(-c5ccccc5)o4)cc3)oc2-c2ccccc2)cc1` has a photoluminescence quantum yield (in C1COCCO1) of 0.63.
With `Nc1cccc2c1C(=O)c1ccccc1-2` the photoluminescence quantum yield (in C1CCCCC1) was 0.031, the photoluminescence quantum yield (in CC#N) was 0.057 and the photoluminescence quantum yield (in CCO) was 0.068. The photoluminescence quantum yield (in c1ccccc1) was 0.055.
`COc1ccc(C#Cc2c3cc4cc(C)sc4cc3c(C#Cc3ccc(OC)cc3)c3cc4cc(C)sc4cc23)cc1` gave a photoluminescence quantum yield (in ClCCl) of 0.92.
For `CCN(CC)c1ccc2c(c1)OC1=[N+](c3ccc(I)cc3)[B-](F)(F)n3c(nc4ccccc43)C1=C2`, the photoluminescence quantum yield (in ClCCl) was 0.81.
For `O=c1cc(-c2ccccc2)oc(-c2ccc(-c3nc4ccccn4c3NC3CCCCC3)cc2)c1`, the photoluminescence quantum yield (in ClCCl) was 0.028.
For `COc1ccc(-c2cc3c4c(c2)CCc2cc(-c5ccc(OC)cc5)cc(c2-4)CC3)cc1`, the photoluminescence quantum yield (in C1CCCCC1) was 0.81, the photoluminescence quantum yield (in C1CCOC1) was 0.76 and the photoluminescence quantum yield (in CC#N) was 0.6. For the same molecule, the photoluminescence quantum yield (in CCCCCC) was 0.92, the photoluminescence quantum yield (in CCO) was 0.53 and the photoluminescence quantum yield (in CN(C)C=O) was 0.55. For the same molecule, the photoluminescence quantum yield (in CO) was 0.45, the photoluminescence quantum yield (in Cc1ccccc1) was 1 and the photoluminescence quantum yield (in ClC(Cl)Cl) was 0.39. For the same molecule, the photoluminescence quantum yield (in ClCCl) was 1.
`Clc1ccc(/C=C(\c2ccccc2)c2nc3ccccc3s2)cc1` gave a photoluminescence quantum yield (in C1CCCCC1) of 0.001 and a photoluminescence quantum yield (in CO) of 0.001.
`c1ccc(-n2c(-c3cccc4ccccc34)nc3c4ccccc4c4ccccc4c32)cc1` gave a photoluminescence quantum yield (in Cc1ccccc1) of 0.79.
Work on `C1CCN2CCCn3c2c(c2c3=NCCN=2)C1` yielded a photoluminescence quantum yield (in CCCCCC) of 0.36 and a photoluminescence quantum yield (in CS(C)=O) of 0.2.
For `CC1=CC(/C=C/c2ccccc2)=[N+]2C1=C(c1ccccc1)c1c(C)cc(/C=C/c3ccccc3)n1[B-]2(F)F`, the photoluminescence quantum yield (in Cc1ccccc1) was 0.59.
In the case of `Nc1ccc2nc3c4ccccc4c(=[NH2+])cc-3oc2c1`, the photoluminescence quantum yield (in CCO) is reported as 0.582.
`Cc1ccc(/C=C(\c2ccccc2)c2nc3ccccc3o2)cc1` showed a photoluminescence quantum yield (in C1CCCCC1) of 0.008 and a photoluminescence quantum yield (in CO) of 0.004.
With `COc1cccc(OC)c1-c1c2ccccc2c(-c2c(OC)cccc2OC)c2ccccc12` the photoluminescence quantum yield (in C1CCCCC1) was 0.94.
`COc1ccc(-c2ccc(/C=C/c3ccncn3)cc2)cc1` gave a photoluminescence quantum yield (in ClCCl) of 0.14.
`Nc1ccc2c3cccc4cccc(c5cccc1c52)c43` showed a photoluminescence quantum yield (in C1CCCCC1) of 0.55, a photoluminescence quantum yield (in C1CCOC1) of 0.58 and a photoluminescence quantum yield (in C1COCCO1) of 0.28. For the same molecule, the photoluminescence quantum yield (in CC(C)=O) was 0.5, the photoluminescence quantum yield (in CCCCOCCCC) was 0.24 and the photoluminescence quantum yield (in CCOC(C)=O) was 0.2. For the same molecule, the photoluminescence quantum yield (in CN(C)C=O) was 0.56, the photoluminescence quantum yield (in CO) was 0.45 and the photoluminescence quantum yield (in ClCCl) was 0.47.
Work on `Clc1ccc2nc3cc4ccccc4cc3c(-c3ccccc3)c2c1` yielded a photoluminescence quantum yield (in ClCCl) of 0.38.
Work on `c1ccc(-c2nc(-c3ccc(N4c5ccccc5C(c5ccccc5)(c5ccccc5)c5ccccc54)cc3)cc(-c3ccc(N4c5ccccc5C(c5ccccc5)(c5ccccc5)c5ccccc54)cc3)n2)cc1` yielded a photoluminescence quantum yield (in Cc1ccccc1) of 0.5 and a photoluminescence quantum yield (in O=P(c1ccccc1)(c1ccccc1)c1ccc2oc3ccc(P(=O)(c4ccccc4)c4ccccc4)cc3c2c1) of 0.94.
`F[B-]1(F)OC(/C=C/c2ccccc2)=CC(c2ccccc2)=[O+]1` showed a photoluminescence quantum yield (in ClCCl) of 0.02.
In the case of `CCC1=C(C)C2=C(/C=C/c3ccc(OC)cc3)c3c(C)c(CC)c(C)n3[B-](F)(F)[N+]2=C1C`, the photoluminescence quantum yield (in ClCCl) is reported as 0.01.
`CCCCN(CCCC)c1ccc(C#Cc2cc(C#Cc3ccc(N(CCCC)CCCC)cc3)c(C#Cc3ccc(C(F)(F)F)cc3)cc2C#Cc2ccc(C(F)(F)F)cc2)cc1` gave a photoluminescence quantum yield (in ClCCl) of 0.38.
In the case of `CCn1c2ccccc2c2cc(-c3cc(-c4ccc5c(c4)c4ccccc4n5CC)nc(-c4ccc(OC)cc4)n3)ccc21`, the photoluminescence quantum yield (in C1CCOC1) is reported as 0.45, the photoluminescence quantum yield (in CCOC(C)=O) is reported as 0.56 and the photoluminescence quantum yield (in CN(C)C=O) is reported as 0.68. For the same molecule, the photoluminescence quantum yield (in Cc1ccccc1) was 0.54 and the photoluminescence quantum yield (in ClCCl) was 0.42.

Reference: the Deep4Chem optical property database
